Experimental data: PMC7280195, “Simple ammonium salts acting on sigma-1 receptors yield potential treatments for cancer and depression” (Scientific Reports, 2020)
Counter-ions that a name gives are not always drawn. Like-named read-outs stand apart in the source and are kept apart here.

What was measured:
sigma-2 receptor = biological target: T1, sigma-2 receptor (Homo sapiens, UniProt Q5BJF2); test: biochemical; type: binding
T1 construct: MCF7 cells were suspended in sigma-2 assay buffer (50 mM Tris-HCl; pH 8.0), sonicated (1 minute) and the homogenate was centrifuged; endogenous in cells; host or cells: MCF7 cells (gift), membrane pellet
T1 sequence (Q5BJF2 whole entry): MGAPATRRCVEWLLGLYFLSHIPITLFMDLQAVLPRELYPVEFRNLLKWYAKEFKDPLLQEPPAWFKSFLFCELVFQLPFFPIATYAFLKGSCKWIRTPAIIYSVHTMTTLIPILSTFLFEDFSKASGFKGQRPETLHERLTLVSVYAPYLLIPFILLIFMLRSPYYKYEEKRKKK

mice = test: Forced-swim test; type: in vivo
[1] = biological target: muscarinic acetylcholine receptor; type: binding, rat; conditions: for mACh R affinity pKi ± SEM (n) / Ki: rat brain membranes; for mACh R affinity pKi ± SEM (n): 1.35 nM [3H] QNB; for Ki: read-out: mACh R affinity Ki

Row | Structure (SMILES) | σ-2 R affinity pKi ± SEM (n) (sigma-2 receptor) | Ki (sigma-2 receptor; read-out: σ-2 R affinity Ki) [µM] | other results
1 | NC1C2CC3CC(C2)CC1C3 (centres unmarked) [2-adamantyl] | 5.5 ± 0.2 (3) | 3.5 | –
2 | CN(C)CCN(C)CCc1ccc(Cl)c(Cl)c1 [BD1047, N’-[2-(3,4-dichlorophenyl)ethyl]-N,N,N’-trimethylethane-1,2-diamine, reference compound] | – | – | time spent immobile, forced-swim test (mice; ip, 4 mg/kg, 0.1 h): 217 ± 17 s
3 | CCCCN [Butyl] | 3.26 ± 0.05 (3) | 550 | –
4 | CCCCCCCCCCN [Decyl, decylammonium] | 5.41 ± 0.07 (3) | 3.9 | –
5 | CCC(C)NC(C)CC (centres unmarked) [Di-sec-butyl, di-sec-butylammonium] | 5.2 ± 0.2 (3) | 6.3 | –
6 | CCCCNCCCC [Dibutyl] | 5.64 ± 0.07 (3) | 2.3 | –
7 | CCNCC.Cl [Diethyl] | <3 (3) | – | –
8 | CC(C)CNCC(C)C [Diisobutyl] | 5.2 ± 0.2 (3) | 6.6 | –
9 | CC(C)NC(C)C [Diisopropyl] | 4.1 ± 0.1 (3) | 71 | –
10 | CNC [Dimethyl] | <3 (3) | – | –
11 | CCCNCCC.Cl [Dipropyl] | 4.10 ± 0.07 (3) | 79 | –
12 | CCCCCCN.Cl [Hexyl] | 5.1 ± 0.2 (3) | 7.8 | –
13 | CCCCCCCCN.Cl [Octyl] | 5.2 ± 0.2 (3) | 6.2 | –
14 | CCCCCN [Pentyl] | 3.9 ± 0.1 (3) | 130 | –
15 | CCCN [Propyl] | <3 (3) | – | –
16 | C[C@@H]1CN(CCCn2c3ccccc3c3ccccc32)C[C@H](C)N1 [Rimcazole, 9-[3-(cis−3,5-dimethyl-1-piperizinyl)propyl]-9H-carbazole dihydrochloride, reference compound] | – | – | mACh R affinity pKi ± SEM (n) [1]: 4.49 ± 0.10 (7); mACh R affinity pKi ± SEM (n) ([1]; listed as rimcazole): 4.5 ± 0.1; Ki [1]: 32 µM
17 | CCCC[N+](CCCC)(CCCC)CCCC [Tetrabutyl, tetrabutylammonium] | – | – | Ki (sigma-2 receptor): 60 µM
18 | CC[N+](CC)(CC)CC [Tetraethyl] | <3 (3) | – | –
19 | CCCCCCCCCCCCN(CCCCCCCCCCCC)CCCCCCCCCCCC [Tridodecyl] | 4.1 ± 0.6 (3) | 76 | –
20 | CCN(CC)CC [Triethyl] | 3.66 ± 0.04 (3) | 220 | –
21 | CCCCCCN(CCCCCC)CCCCCC [Trihexyl, trihexylammonium] | 6.63 ± 0.03 (3) | 0.23 | –
22 | CC(C)CN(CC(C)C)CC(C)C.Cl [Triisobutyl] | 5.46 ± 0.06 (3) | 3.5 | –
23 | CN(C)C.Cl [Trimethyl] | <3 (3) | – | –
24 | CCCCCCCCN(CCCCCCCC)CCCCCCCC.Cl [Trioctyl] | 3.74 ± 0.06 (3) | 180 | –
25 | CCCCCN(CCCCC)CCCCC [Tripentyl, tripentylammonium] | 6.1 ± 0.1 (3) | 0.78 | mACh R affinity pKi ± SEM (n) [1]: 4.3 ± 0.4 (4); Ki [1]: 47 µM; mACh R Ki/σ-1 R Ki ([1]; ratio between Ki values): 3130; effect on immobility time, forced-swim test (mice; doses up to 10 mg.kg−1): did not have any significant effect
26 | CCCN(CCC)CCC [Tripropyl] | 4.36 ± 0.07 (3) | 44 | –
